Measured values reported in patent publication US6358885B1, “Substituted phenylheterocyclic herbicides” (Mississippi State University, priority 1992, dated 2002).

Key:
[1] = system: wild oat; assay: Test B preemergence/postemergence greenhouse plant response rating 0 to 10; format: in vivo, Avena fatua; conditions: 0 to 10 scale
In short: (§1)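 Both application timings were run together: seeds got compound preemergence, and established seedlings (two to eighteen cm) got it postemergence. Non-phytotoxic solvent carried the chemical. Ratings are visual, versus controls, at twelve to sixteen days.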

[2] = system: rice; assay: as above; format: in vivo, Oryza sativa; conditions: 0 to 10 scale
In short: as §1

[3] = system: pigweed; assay: Test C preemergence/postemergence greenhouse plant response rating 0 to 100; format: in vivo, Amaranthusretroflexus; conditions: POSTEMERGENCE
In short: (§2)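 Compounds in non-phytotoxic solvent applied preemergence to sandy loam one day after planting, postemergence at the 1–4 leaf stage, or to ~2.5 cm floodwater over silt loam.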

[4] = system: cotton; assay: Test B preemergence/postemergence greenhouse plant response rating 0 to 10; format: in vivo, Gossypium hirsutum; conditions: 0 to 10 scale
In short: as §1

[5] = system: wheat; assay: as above; format: in vivo, Triticum aestivum; conditions: 0 to 10 scale
In short: as §1

[6] = system: duck salad; assay: Test C flood test plant response rating 0 to 100; format: in vivo, Heteranthera limosa
In short: as §2

[7] = system: wheat; assay: Test C preemergence/postemergence greenhouse plant response rating 0 to 100; format: in vivo, Triticum aestivum; conditions: POSTEMERGENCE
In short: as §2

[8] = system: sorghum; assay: Test B preemergence/postemergence greenhouse plant response rating 0 to 10; format: in vivo, Sorghum bicolor; conditions: 0 to 10 scale
In short: as §1

[9] = system: velvetleaf; assay: Test C preemergence/postemergence greenhouse plant response rating 0 to 100; format: in vivo, Abutilon theophrasti; conditions: POSTEMERGENCE
In short: as §2

[10] = system: purple nutsedge; assay: Test B preemergence/postemergence greenhouse plant response rating 0 to 10; format: in vivo, Cyperus rotundus; conditions: 0 to 10 scale
In short: as §1

[11] = system: blackgrass; assay: as above; format: in vivo, Alopecurus myosuroides; conditions: 0 to 10 scale
In short: as §1

[12] = system: sugar beet; assay: as above; format: in vivo, Beta vulgaris; conditions: 0 to 10 scale
In short: as §1

[13] = system: lambsquarters; assay: Test C preemergence/postemergence greenhouse plant response rating 0 to 100; format: in vivo, Chenopodium album; conditions: POSTEMERGENCE
In short: as §2

[14] = system: wild buckwheat; assay: as above; format: in vivo, Polygonum convolvulus; conditions: POSTEMERGENCE
In short: as §2

[15] = system: cotton; assay: as above; format: in vivo, Gossypium hirsutum; conditions: POSTEMERGENCE
In short: as §2

[16] = system: barnyardgrass; assay: Test C flood test plant response rating 0 to 100; format: in vivo, Echinochloa crus-galli
In short: as §2

[17] = system: crabgrass; assay: Test B preemergence/postemergence greenhouse plant response rating 0 to 10; format: in vivo, Digitaria spp.; conditions: 0 to 10 scale
In short: as §1

[18] = system: corn; assay: as above; format: in vivo, Zea mays; conditions: 0 to 10 scale
In short: as §1

[19] = POSTEMERGENCE section, flood test, Rate 1 g/ha
[20] = POSTEMERGENCE section, flood test, Rate 4 g/ha
[21] = Rate 16 g/ha, under POSTEMERGENCE head (flood test species)
[22] = flood test species listed under POSTEMERGENCE, 62 g/ha, 0 to 100 scale

COCN1C(=O)COc2cc(F)c(-c3nn4c(c3Br)CCCC4)cc21 [Compound 67]
Plant response rating, Wild oat ([1]; POSTEMERGENCE, Rate 10 g/ha): 6 | Plant response rating, Wild oat ([1]; POSTEMERGENCE, Rate 50 g/ha): 7 | Plant response rating, Wild oat ([1]; PREEMERGENCE, Rate 50 g/ha): 5 | Plant response rating, Rice ([2]; POSTEMERGENCE, Rate 10 g/ha): 6 | Plant response rating, Rice ([2]; POSTEMERGENCE, Rate 50 g/ha): 7 | Plant response rating, Rice ([2]; PREEMERGENCE, Rate 50 g/ha): 0 | Plant response rating Pigweed ([3]; 62 g/ha, 0 to 100 scale): 100 | Plant response rating (0 to 100), Pigweed ([3]; Rate 4 g/ha): 70 | Plant response rating (0 to 100), Pigweed ([3]; Rate 16 g/ha): 100 | Plant response rating, Cotton ([4]; POSTEMERGENCE, Rate 10 g/ha): 10 | Plant response rating, Cotton ([4]; POSTEMERGENCE, Rate 50 g/ha): 10 | Plant response rating, Cotton ([4]; PREEMERGENCE, Rate 10 g/ha): 0 | Plant response rating, Cotton ([4]; PREEMERGENCE, Rate 50 g/ha): 1 | Plant response rating, Wheat ([5]; POSTEMERGENCE, Rate 10 g/ha): 5 | Plant response rating, Wheat ([5]; POSTEMERGENCE, Rate 50 g/ha): 6 | Plant response rating, Wheat ([5]; PREEMERGENCE, Rate 50 g/ha): 0 | Plant response rating (0 to 100), Duck salad [6, 19]: 0 | Plant response rating (0 to 100), Duck salad [6, 20]: 0 | Plant response rating (0 to 100), Duck salad [6, 21]: 0 | Plant response rating Duck salad [6, 22]: 10 | Plant response rating, Wheat ([7]; 62 g/ha, 0 to 100 scale): 60 | Plant response rating (0 to 100), Wheat ([7]; Rate 1 g/ha): 10 | Plant response rating (0 to 100), Wheat ([7]; Rate 4 g/ha): 30 | Plant response rating (0 to 100), Wheat ([7]; Rate 16 g/ha): 50 | Plant response rating, Sorghum ([8]; POSTEMERGENCE, Rate 10 g/ha): 5 | Plant response rating, Sorghum ([8]; POSTEMERGENCE, Rate 50 g/ha): 6 | Plant response rating, Sorghum ([8]; PREEMERGENCE, Rate 50 g/ha): 2 | Plant response rating, Velvetleaf ([9]; 62 g/ha, 0 to 100 scale): 100 | Plant response rating (0 to 100), Velvetleaf ([9]; Rate 1 g/ha): 70 | Plant response rating (0 to 100), Velvetleaf ([9]; Rate 4 g/ha): 85 | Plant response rating (0 to 100), Velvetleaf ([9]; Rate 16 g/ha): 100 | Plant response rating, Nutsedge ([10]; POSTEMERGENCE, Rate 10 g/ha): 1 | Plant response rating, Nutsedge ([10]; POSTEMERGENCE, Rate 50 g/ha): 3 | Plant response rating, Nutsedge ([10]; PREEMERGENCE, Rate 50 g/ha): 0 | Plant response rating, Blackgrass ([11]; POSTEMERGENCE, Rate 10 g/ha): 4 | Plant response rating, Blackgrass ([11]; POSTEMERGENCE, Rate 50 g/ha): 5 | Plant response rating, Blackgrass ([11]; PREEMERGENCE, Rate 10 g/ha): 3 | Plant response rating, Blackgrass ([11]; PREEMERGENCE, Rate 50 g/ha): 8 | Plant response rating, Sugar beet ([12]; POSTEMERGENCE, Rate 10 g/ha): 10 | Plant response rating, Sugar beet ([12]; POSTEMERGENCE, Rate 50 g/ha): 10 | Plant response rating, Sugar beet ([12]; PREEMERGENCE, Rate 50 g/ha): 9 | Plant response rating Lambsquarters ([13]; 62 g/ha, 0 to 100 scale): 100 | Plant response rating (0 to 100), Lambsquarters ([13]; Rate 1 g/ha): 100 | Plant response rating (0 to 100), Lambsquarters ([13]; Rate 4 g/ha): 100 | Plant response rating (0 to 100), Lambsquarters ([13]; Rate 16 g/ha): 100 | Plant response rating, Wild buckwheat ([14]; 62 g/ha, 0 to 100 scale): 100 | Plant response rating (0 to 100), Wild buckwheat ([14]; Rate 4 g/ha): 70 | Plant response rating (0 to 100), Wild buckwheat ([14]; Rate 16 g/ha): 100 | Plant response rating, Cotton ([15]; 62 g/ha, 0 to 100 scale): 100 | Plant response rating (0 to 100), Cotton ([15]; Rate 1 g/ha): 95 | Plant response rating (0 to 100), Cotton ([15]; Rate 4 g/ha): 100 | Plant response rating (0 to 100), Cotton ([15]; Rate 16 g/ha): 100 | Plant response rating (0 to 100), Barnyardgrass 2 [16, 19]: 0 | Plant response rating (0 to 100), Barnyardgrass 2 [16, 20]: 20 | Plant response rating (0 to 100), Barnyardgrass 2 [16, 21]: 90 | Plant response rating Barnyardgrass 2 [16, 22]: 95 | Plant response rating, Crabgrass ([17]; POSTEMERGENCE, Rate 10 g/ha): 5 | Plant response rating, Crabgrass ([17]; POSTEMERGENCE, Rate 50 g/ha): 6 | Plant response rating, Crabgrass ([17]; PREEMERGENCE, Rate 10 g/ha): 0 | Plant response rating, Crabgrass ([17]; PREEMERGENCE, Rate 50 g/ha): 2 | Plant response rating, Corn ([18]; POSTEMERGENCE, Rate 10 g/ha): 3 | Plant response rating, Corn ([18]; POSTEMERGENCE, Rate 50 g/ha): 4 | Plant response rating, Corn ([18]; PREEMERGENCE, Rate 50 g/ha): 2
